Experimental data taken from patent US20250026752A1, “POSITIVE ALLOSTERIC MODULATORS OF THE MUSCARINIC ACETYLCHOLINE RECEPTOR M4” (Vanderbilt University, priority 2021, published 2025).

Molecular target: T1, human mAChR M4 (Homo sapiens, UniProt P08173)
T1 construct: expressed in transfected cells; host or cells: CHO-K1 (ATCC), stably expressing hM4 and Gqi5
T1 sequence (P08173 1-479): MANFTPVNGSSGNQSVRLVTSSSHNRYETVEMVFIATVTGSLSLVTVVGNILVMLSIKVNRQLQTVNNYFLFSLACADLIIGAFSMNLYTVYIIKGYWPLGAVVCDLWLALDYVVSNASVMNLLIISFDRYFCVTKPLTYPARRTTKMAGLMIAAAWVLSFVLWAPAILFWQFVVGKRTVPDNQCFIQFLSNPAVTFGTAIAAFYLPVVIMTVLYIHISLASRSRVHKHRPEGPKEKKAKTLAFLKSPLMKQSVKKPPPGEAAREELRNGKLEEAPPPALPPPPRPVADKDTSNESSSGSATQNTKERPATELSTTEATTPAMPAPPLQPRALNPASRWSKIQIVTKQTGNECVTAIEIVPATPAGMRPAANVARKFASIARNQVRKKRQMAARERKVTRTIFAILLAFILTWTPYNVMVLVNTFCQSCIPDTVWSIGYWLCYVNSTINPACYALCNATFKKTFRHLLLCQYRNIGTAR
Experiment: mAChR M4 cell-based functional assay: calcium flux (Fluo-4, FDSS), positive allosteric modulator activity on the EC20 acetylcholine response, hM4-Gqi5 CHO-K1 cells
Settings: for Emax at 30 µM: CHO-K1, human M4, % ACh maximum at 30 μM; for EC50: human M4, PAM activity on EC20 acetylcholine response, calcium flux, read-out: Human M4 EC50
In short: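 CHO-K1 cells stably expressing human M4 with chimeric Gqi5, loaded with Fluo-4 AM for 50 min at 37° C. Compounds (11-point, 1:3 dilutions) added first, then an acetylcholine EC20 at 144 s; calcium read on FDSS at 1 Hz. EC50 is the half-maximal increase above the EC20 baseline, four-parameter logistic fit.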

Emax at 30 µM	EC50	SMILES
97%	30 nM	Fc1cc2ncnc(N3CCc4ncc(N5CCOc6ncccc65)cc4C3)c2cc1F [Compound 98, 1-[6-(6,7-difluoroquinazolin-4-yl)-7,8-dihydro-5H-1,6-naphthyridin-3-yl]-2,3-dihydropyrido[2,3-b][1,4]oxazine]
101%	60 nM	Cc1ccc2nc(C)nc(N3CCc4ncc(N5CCCn6nccc65)cc4C3)c2c1 [Compound 100, 4-[3-(6,7-dihydro-5H-pyrazolo[1,5-a]pyrimidin-4-yl)-7,8-dihydro-5H-1,6-naphthyridin-6-yl]-2,6-dimethyl-quinazoline]
92%	480 nM	Cc1nc(N2CCc3ncc(N4CCCn5nccc54)cc3C2)c2cc(C(F)(F)F)ccc2n1 [Compound 101, 4-[3-(6,7-dihydro-5H-pyrazolo[1,5-a]pyrimidin-4-yl)-7,8-dihydro-5H-1,6-naphthyridin-6-yl]-2-methyl-6-(trifluoromethyl)quinazoline]
78%	210 nM	COc1cc2c(N3CCc4ncc(N5CCCn6nccc65)cc4C3)nc(Cl)nc2cc1F [Compound 102, 2-chloro-4-[3-(6,7-dihydro-5H-pyrazolo[1,5-a]pyrimidin-4-yl)-7,8-dihydro-5H-1,6-naphthyridin-6-yl]-7-fluoro-6-methoxy-quinazoline]
98%	140 nM	Cc1nc(N2CCc3ncc(N4CCOc5ncccc54)cc3C2)c2cc(Cl)ccc2n1 [Compound 107, 1-[6-(6-chloro-2-methyl-quinazolin-4-yl)-7,8-dihydro-5H-1,6-naphthyridin-3-yl]-2,3-dihydropyrido[2,3-b][1,4]oxazine]
80%	460 nM	Fc1cc2c(N3CCc4ncc(N5CCCn6nccc65)cc4C3)nc(Cl)nc2cc1Cl [Compound 109, 2,7-dichloro-4-[3-(6,7-dihydro-5H-pyrazolo[1,5-a]pyrimidin-4-yl)-7,8-dihydro-5H-1,6-naphthyridin-6-yl]-6-fluoro-quinazoline]
76%	3870 nM	Fc1cc2c(N3CCc4ncc(Nc5cccnc5F)cc4C3)nc(Cl)nc2cc1Cl [Compound 110, 6-(2,7-dichloro-6-fluoro-quinazolin-4-yl)-N-(2-fluoro-3-pyridyl)-7,8-dihydro-5H-1,6-naphthyridin-3-amine]
82%	400 nM	Fc1ccc2nc(C(F)(F)F)nc(N3CCc4ncc(N5CCCn6nccc65)cc4C3)c2c1 [Compound 111, 4-[3-(6,7-dihydro-5H-pyrazolo[1,5-a]pyrimidin-4-yl)-7,8-dihydro-5H-1,6-naphthyridin-6-yl]-6-fluoro-2-(trifluoromethyl)quinazoline]

Further lines, the molecule ahead of its results:

SMILES	Emax at 30 µM	EC50
Clc1nc(N2CCc3ncc(N4CCOc5ncccc54)cc3C2)c2cccnc2n1 [Compound 95, 1-[6-(2-chloropyrido[2,3-d]pyrimidin-4-yl)-7,8-dihydro-5H-1,6-naphthyridin-3-yl]-2,3-dihydropyrido[2,3-b][1,4]oxazine]	78%	420 nM
Cc1ccc2ncnc(N3CCc4ncc(Nc5ccnn5C)cc4C3)c2c1 [Compound 96, N-(2-methylpyrazol-3-yl)-6-(6-methylquinazolin-4-yl)-7,8-dihydro-5H-1,6-naphthyridin-3-amine]	94%	80 nM
Cc1ccc2ncnc(N3CCc4ncc(Nc5cccnc5F)cc4C3)c2c1 [Compound 97, N-(2-fluoro-3-pyridyl)-6-(6-methylquinazolin-4-yl)-7,8-dihydro-5H-1,6-naphthyridin-3-amine]	95%	80 nM
Cc1ccc2nc(C)nc(N3CCc4ncc(N5CCOc6ncccc65)cc4C3)c2c1 [Compound 99, 1-[6-(2,6-dimethylquinazolin-4-yl)-7,8-dihydro-5H-1,6-naphthyridin-3-yl]-2,3-dihydropyrido[2,3-b][1,4]oxazine]	101%	100 nM
CC1(C)CN(c2cnc3c(c2)CN(c2ncnc4ccc(F)cc24)CC3)CCO1 [Compound 103, 4-[6-(6-fluoroquinazolin-4-yl)-7,8-dihydro-5H-1,6-naphthyridin-3-yl]-2,2-dimethyl-morpholine]	63%	50 nM
C[C@@H]1CN(c2cnc3c(c2)CN(c2ncnc4ccc(F)cc24)CC3)CCO1 [Compound 104, (2R)-4-[6-(6-fluoroquinazolin-4-yl)-7,8-dihydro-5H-1,6-naphthyridin-3-yl]-2-methyl-morpholine]	63%	70 nM
Clc1ccc2ncnc(N3CCc4ncc(N5CCOc6ncccc65)cc4C3)c2c1 [Compound 105, 1-[6-(6-chloroquinazolin-4-yl)-7,8-dihydro-5H-1,6-naphthyridin-3-yl]-2,3-dihydropyrido[2,3-b][1,4]oxazine]	91%	70 nM
Cn1nccc1Nc1cnc2c(c1)CN(c1ncnc3ccc(Cl)cc13)CC2 [Compound 106, 6-(6-chloroquinazolin-4-yl)-N-(2-methylpyrazol-3-yl)-7,8-dihydro-5H-1,6-naphthyridin-3-amine]	95%	130 nM
Cc1nc(N2CCc3ncc(Nc4ccnn4C)cc3C2)c2cc(Cl)ccc2n1 [Compound 108, 6-(6-chloro-2-methyl-quinazolin-4-yl)-N-(2-methylpyrazol-3-yl)-7,8-dihydro-5H-1,6-naphthyridin-3-amine]	102%	170 nM
Fc1ccc2nc(C(F)(F)F)nc(N3CCc4ncc(N5CCOc6ncccc65)cc4C3)c2c1 [Compound 112, 1-[6-[6-fluoro-2-(trifluoromethyl)quinazolin-4-yl]-7,8-dihydro-5H-1,6-naphthyridin-3-yl]-2,3-dihydropyrido[2,3-b][1,4]oxazine]	92%	380 nM
Fc1ccc2ncnc(N3CCc4ncc(Oc5ccccc5F)cc4C3)c2c1 [Compound 113, 6-fluoro-4-[3-(2-fluorophenoxy)-7,8-dihydro-5H-1,6-naphthyridin-6-yl]quinazoline]	69%	160 nM
Fc1cccc(Cc2cnc3c(c2)CN(c2ncnc4ccc(F)cc24)CC3)c1 [Compound 114, 6-fluoro-4-[3-[(3-fluorophenyl)methyl]-7,8-dihydro-5H-1,6-naphthyridin-6-yl]quinazoline]	75%	590 nM
Cc1nc(N2Cc3cc(C(F)(F)F)cnc3C(C)(C)C2)c2cc(F)ccc2n1 [Compound 118, 4-[8,8-dimethyl-3-(trifluoromethyl)-5,7-dihydro-1,6-naphthyridin-6-yl]-6-fluoro-2-methyl-quinazoline]	63%	8390 nM
Cc1ccc2nc(Cl)nc(N3CCc4ncc(C(F)(F)F)cc4C3)c2c1 [Compound 119, 2-chloro-6-methyl-4-[3-(trifluoromethyl)-7,8-dihydro-5H-1,6-naphthyridin-6-yl]quinazoline]	95%	110 nM
Fc1ccc2nc(Cl)nc(N3CCc4ncc(C(F)(F)F)cc4C3)c2c1 [Compound 120, 2-chloro-6-fluoro-4-[3-(trifluoromethyl)-7,8-dihydro-5H-1,6-naphthyridin-6-yl]quinazoline]	91%	100 nM
FC(F)(F)c1cnc2c(c1)CN(c1nc(Cl)nc3ncccc13)CC2 [Compound 121, 2-chloro-4-[3-(trifluoromethyl)-7,8-dihydro-5H-1,6-naphthyridin-6-yl]pyrido[2,3-d]pyrimidine]	69%	360 nM
